Test results as given in patent US20180118721A1, “PYRIMIDINE DERIVATIVES” (Merck Patent GmbH, priority 2015, published 2018).

How the values were obtained:
[1] = biological target: T1, purified human recombinant MTH1 (human MTH1, residues 42-197) (Homo sapiens, UniProt P36639); assay: MTH1 enzymatic assay (luminescence-based, PPiLight); type: biochemical
T1 construct: human MTH1, residues 42-197, Uniprot-ID: P36639, expressed in E. coli; made in house; host or cells: E. coli

[2] = Shake flask solubility measurement; type: physicochemical; conditions: aqueous buffer, thermodynamic from solid, phosphate buffer pH 7.4, 37° C.
Description: Compound solubility in aqueous solution is determined by a standard method in the art, the shake flask method. Solubility measurement is performed under equilibrium conditions at pH 7.4. Samples are prepared by dissolving an excess of the test compound in a phosphate buffer (made up of 3,954 g sodium hydrogenphosphate-monohydrate, 6,024 g sodium chloride, 950 ml ultrapure water and adjusted to pH 7.4 with 0.1 M NaOH or 0.1 M HCl). These samples are shaken at 37° C. with 450 rpm (shaker: TiMix control Bühler) for 24 h in total until equilibrium is reached. After 7 hours shaking, the pH value of the sample is controlled and adjusted, if necessary. It is also checked that the sample (test compound) is available in excess. Shortly before the end of 24 h, samples are checked again for pH and precipitate. At the end of 24 h and after separation of the solid by filtration, the concentration of the compound in the filtrate is determined by liquid chromatography using […] (LC-UV).
Sample preparation: Incubation hood: TH 15 Bühler; pH device 766 Calimatic Knick; pH electrode InLab 423 Mettler
Chromatography Conditions:
Column: Chromolith RP18e 100×3 mm
Wavelength range: 190-400 nm • select a suitable evaluation wavelength
Injection volume: Probe 5 μl and 15 μl; Standard 5 μl
Column stove temperature: 37° C.
Eluent A: water/formic acid (999:1; v/v)
Eluent B: acetonitrile/formic acid (999:1; v/v)

[3] = Microsomal stability (intrinsic clearance), human; type: in vitro ADME; conditions: human liver microsomes, 0.5 mg/ml protein, Clint
Description: (§1) A microsomal stability assay is used to measure in vitro clearance (Clint). The assay involves measuring the rate of disappearance of a compound due to its intrinsic attitude to be metabolized (“intrinsic” meaning that the disappearance is not affected by other properties like permeability, binding etc. that play a role when quantifying in vivo clearance). The microsomal stability (intrinsic clearance, Clint) and thus metabolic stability is generally given as μl/min/mg protein. It can be visualized as the volume of solution that 1 mg of microsomes is able to clear of the compound in one minute.
(§2) A Tecan Genesis workstation (RSP 150/8) was used for to perform the microsomal incubations. Analysis was carried out using a Waters ACQUITY UPLC system coupled to an ABSciex API3000 mass spectrometer. Data analysis was performed using Assay Explorer (Symyx).
(§3) Column: Acquity UPLC BEH C18, 2.1×50 mm, 1.7 μm (Waters) Mobile phases: A=0.1% formic acid in water; B=acetonitrile
(§4) Flow rate: 0.750 mL/min; Detection: ESI, MRM; Injection: 10 μL; Column temperature: 50° C.
(§5) • Potassium phosphate buffer: 0.05 M potassium phosphate buffer pH 7.4 containing 1 mM MgCl2 • NADPH (nicotinamide adenine dinucleotide phosphate): 22.5 mg NADPH-Na4 in 1.8 ml potassium phosphate buffer • Acetonitrile: 50 Vol % acetonitrile (1 volume acetonitrile, 1 volume water) • DMSO: 20 Vol % DMSO in water • Stock solution of 20 mg/ml human or mouse liver microsomes (protein)/ml in phosphate buffer • Stock solution of 10 mM compound in 100% DMSO
(§6) Dilution of test compounds was done in 2 steps starting from a 10 mM stock solution of the respective compound in 100% DMSO. First 4 μl stock solution was added to 196 μl of 20 Vol % DMSO. In a second step, 10 μl of the first dilution were added to 1590 μl potassium phosphate buffer to achieve a final concentration of 1.25 μM in the final compound dilution. Thus, the amount of organic solvent in the assay was kept to a minimum (<1%).
(§7) The human or mouse liver microsome (protein) solution to be used in the assay was prepared by mixing 750 μl stock solution (20 mg/ml) and 2250 μl potassium phosphate buffer to a final concentration of 5 mg/ml.
(§8) Incubation was carried out on a 96 deep well incubation plate. 160 μl per well of the final compound dilution were transferred onto the incubation plate. Four samples of each compound dilution were assayed. 20 μl/well liver microsome solution was added to each well and the samples were then preincubated for 5 min at 37° C. and 800 rpm agitation. Two reference compounds (verapamil and dextromethorphan) were used in parallel in every experiment and for each species (human or mouse microsomes) to ensure system performance and for comparison.
(§9) On a separate stop plate, 160 μl acetonitrile were added per well.
(§10) After preincubation, i.e. at time t1=0 minutes, 18 μl samples of incubated compound solution and were transferred and added per well (containing acetonitrile) on the stop plate to prevent a reaction (0 minutes control samples, 4 samples per compound). Equally, 18 μl samples of incubated reference compound solution were transferred and added per well (containing acetonitrile) on the stop plate at time t1=0 minutes and again after 30 minutes (t4), solubility and chemical stability of the compound were checked. […]

[4] = Microsomal stability (intrinsic clearance), mouse; type: in vitro ADME; conditions: mouse liver microsomes, 0.5 mg/ml protein, Clint
Description: as §1, §2, §3, §4, §5, §6, §7, §8, §9, §10

[5] = biological target: T2, humanMTH1 (aminoacids 42 to 197) (Homo sapiens, UniProt P36639); assay: Binding affinities and kinetics on MTH1 surfaces by surface plasmon resonance (SPR)
T2 construct: humanMTH1 (aminoacids 42 to 197); His tag at the N-terminus; purchased Abnova ab99390; host or cells: E. coli
Description: The SPR experiments were performed using a Biacore4000 instrument. […] HumanMTH1 was immobilized on Biacore CM5 chips at 25° C. and a flow rate of 10 μL/min using amine coupling at pH 5.5 and in presence of 1 μM MSC2567771B-1 according to Biacore's standard protocol. MTH1 was applied at a concentration of 10 μg/mL and depending on the duration of the injection time immobilization levels between 500 and 2,000 RU were obtained. Sample compounds were applied in form of titration series with a doubling of concentration at each subsequent injection. In general, 10 concentrations were injected covering a dilution range of 500 fold. Before and after each of these titration series the binding capability of the surface was controlled by the injection of the positive control S-Crizotinib at a fixed concentration of 2 μM. Kinetic titration experiments were performed at 25° C. with a flow rate of 30 μL/min, a sample contact time of 90 sec and a dissociation time of 420 sec in running buffer (20 mM Tris-HCl (Tris(hydroxymethyl)-aminomethane HCl) pH 7.40, 150 mM NaCl, 5 mM MgCl2, 1 mM DTT (dithiothreitol), 0.1 mM EGTA (ethylene glycol tetraacetic acid), 0.05% Tween 20) containing 2% DMSO (dimethyl sulfoxide). Buffer injections identical to the sample injections were executed at the beginning of the successive series for the purpose of double referencing. Solvent correction cycles (eight correction points, 1.4%-2.8% DMSO) were run at the same intervals. For surface conditioning ten start-up cycles (buffer injections) were run. Data points were collected at a sample rate of 10 Hz.
Data sets were processed and analyzed using the software Biacore4000 Evaluation, version 1.0. Solvent corrected and double-referenced association and dissociation phase data were fitted to a simple 1:1 interaction model with mass transport limitations.
Measured values are indicated as KD IC50 in the Table below.

[6] = 6 μM 8-oxo-dGTP, Table 1, grouped

Which results are given for `CNc1cc(N2CCC(F)(F)C2)nc(N)n1` [Example 3, 6-(3,3-difluoro-pyrrolidin-1-yl)-N^4-methyl-pyrimidine-2,4-diamine]?
IC50 [1, 6]: < 1 nM; IC50 ([1]; Table 2): < 1 nM; solubility at 24 h [2]: > 1000 µg/mL; Microsomal stability human [3]: <10 μl/min/mg prot.; Microsomal stability mouse [4]: 43 μl/min/mg prot.

Which results are given for `NC(=O)C1CCN(c2cc(NC3CC3)nc(N)n2)C1` (stereo not drawn) [Example 5, 1-(2-amino-6-cyclopropylamino-pyrimidin-4-yl)-pyrrolidine-3-carboxylic acid amide-formate]?
IC50 [1, 6]: 1 to 100 nM; IC50 ([1]; Table 2): 7 nM; solubility at 24 h [2]: > 1000 µg/mL; Microsomal stability human [3]: <10 μl/min/mg prot.; Microsomal stability mouse [4]: 13 μl/min/mg prot.

For `CNc1cc(N2CCC(O)C2)nc(N)n1` (stereo not drawn) [Example 7, 1-(2-amino-6-methylamino-pyrimidin-4-yl)-pyrrolidin-3-ol-formate], which IC50 [1, 6] is on record?
The IC50 was 1 to 100 nM.

What about the IC50 ([1]; Table 2) of the same molecule?
The IC50 was 1.3 nM.

And the solubility at 24 h [2]?
Its solubility at 24 h is over 1000 µg/mL.

And the Microsomal stability human [3]?
Its Microsomal stability human is under 10 μl/min/mg prot.

And the Microsomal stability mouse [4]?
The Microsomal stability mouse was under 10 μl/min/mg prot.

With `CNc1cc(N2CCC[C@@H]2CO)nc(N)n1` [Example 8, [(R)-1-(2-amino-6-methylamino-pyrimidin-4-yl)-pyrrolidin-2-yl]-methanol-formate] as the molecule, how does the IC50 [1, 6] read?
Its IC50 is 1 to 100 nM.

And the IC50 ([1]; Table 2)?
The IC50 was 2 nM.

And the solubility at 24 h [2]?
The solubility at 24 h was over 1000 µg/mL.

What about the Microsomal stability human [3] of the same molecule?
Its Microsomal stability human is under 10 μl/min/mg prot.

And the Microsomal stability mouse [4]?
The Microsomal stability mouse was under 10 μl/min/mg prot.

With `C=CC(=O)Nc1ccc(CCNC(=O)C2CN(c3cc(NC)nc(N)n3)C2)cc1` [Example 118, 1-(2-Amino-6-methylamino-pyrimidin-4-yl)-azetidine-3-carboxylic acid [2-(4-acryloylamino-phenyl)-ethyl]-amide] as the molecule, how does the IC50 [1, 6] read?
The IC50 was 1 to 100 nM.

And the Kd ([5]; SPR, Biacore4000, 25° C., Table 1, grouped, read-out: KD IC50)?
The Kd was 1 to 100 nM.

What does the source list for `CNc1cc(N2CCC(C(=O)NCCc3ccc(S(=O)(=O)F)cc3)CC2)nc(N)n1` [Example 120, 4-(2-{[1-(2-Amino-6-methylamino-pyrimidin-4-yl)-piperidine-4-carbonyl]-amino}-ethyl)-benzenesulfonyl fluoride]?
IC50 [1, 6]: < 1 nM; residence time ([5]; on MTH1, calculated on the basis of the KD values): ≥ 10 min
